The results in this text go back to ChEMBL document CHEMBL5465560, “Selectivity Literature for EUbOPEN Chemogenomic Library” (2024).

Where only a bound is given, the exact number is not on record here.

The target of experiment [1] is T1, Inhibitor of nuclear factor kappa-B kinase subunit epsilon (Homo sapiens) (UniProt Q14164).
T1 sequence (whole entry): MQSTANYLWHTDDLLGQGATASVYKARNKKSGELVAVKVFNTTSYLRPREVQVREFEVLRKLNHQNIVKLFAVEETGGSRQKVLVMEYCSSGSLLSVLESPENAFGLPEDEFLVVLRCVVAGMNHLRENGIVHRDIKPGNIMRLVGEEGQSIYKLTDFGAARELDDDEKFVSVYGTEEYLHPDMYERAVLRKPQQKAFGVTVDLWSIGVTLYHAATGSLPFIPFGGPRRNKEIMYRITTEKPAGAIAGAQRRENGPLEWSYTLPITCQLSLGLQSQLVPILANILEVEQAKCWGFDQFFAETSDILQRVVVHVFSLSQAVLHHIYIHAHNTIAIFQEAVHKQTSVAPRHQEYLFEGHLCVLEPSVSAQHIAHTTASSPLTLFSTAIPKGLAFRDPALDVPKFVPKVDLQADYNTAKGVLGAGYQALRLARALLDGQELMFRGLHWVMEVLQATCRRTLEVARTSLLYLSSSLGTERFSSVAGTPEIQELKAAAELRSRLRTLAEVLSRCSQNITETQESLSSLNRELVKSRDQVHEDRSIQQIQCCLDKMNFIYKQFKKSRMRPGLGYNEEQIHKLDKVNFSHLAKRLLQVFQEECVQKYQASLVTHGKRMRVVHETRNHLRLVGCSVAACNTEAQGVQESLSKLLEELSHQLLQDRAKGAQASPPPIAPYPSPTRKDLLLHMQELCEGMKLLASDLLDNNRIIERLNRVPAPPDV
Kind of experiment: Selectivity interaction (ProQinase) EUB0000171b IKBKE.

In experiment [2] the target is Serine/threonine-protein kinase OSR1 (Homo sapiens) (UniProt O95747). The experiment is described as follows: Selectivity interaction (Kinase panel (DSF assay)) EUB0001558a OXSR1.
Experiment [3] has as its target Cyclin-dependent kinase 15 (Homo sapiens) (UniProt Q96Q40). The experiment is described as follows: Selectivity interaction (Ambit KINOMEscan and KiNATiv profiling in Jurkat cells) EUB0000090b CDK15. The experiment is classed as cell-based. The following applies: at 1 µM.
Experiment [4] has as its target Proto-oncogene tyrosine-protein kinase Src (Homo sapiens, UniProt P12931). Kind of experiment: Selectivity interaction (KinaseProfiler screening (Millipore)) EUB0000601a SRC. The following applies: at 3 µM.
For experiment [5], the target named is Mu-type opioid receptor (Homo sapiens, UniProt P35372). The experiment is described as follows: Selectivity interaction (GPCR panel (PDSP screen)) EUB0001079a OPRM1. The conditions noted are these: at 10 µM.
For experiment [6], the target named is Cyclin-dependent kinase 7 (Homo sapiens, UniProt P50613). Kind of experiment: Selectivity interaction (KinomeScan (DiscoverX)) EUB0000092b CDK7. The following applies: at 10 µM.
Experiment [7] addresses MAP kinase-interacting serine/threonine-protein kinase 1 (Homo sapiens) (UniProt Q9BUB5). The experiment is described as follows: Selectivity interaction (KinomeScan (DiscoverX)) EUB0001049a MKNK1. The conditions noted are these: at 1 µM.
For experiment [8], the target named is LIM domain kinase 1 (Homo sapiens) (UniProt P53667). Kind of experiment: Selectivity interaction (KinomeScan (DiscoverX)) EUB0000695a LIMK1. The following applies: at 100 nM.
Experiment [9] deals with Wee1-like protein kinase 2 (Homo sapiens) (UniProt P0C1S8). The experiment is described as follows: Selectivity interaction (KinomeScan (DiscoverX)) EUB0000695a WEE2. The following applies: at 100 nM.
Experiment [10] deals with Tyrosine-protein kinase JAK1 (Homo sapiens, UniProt P23458). The experiment is described as follows: Selectivity interaction (Kinase panel (Carna Biosciences)) EUB0001542aTs JAK1. The following applies: at 1 µM.
Experiment [11] has as its target N-lysine methyltransferase SMYD2 (Homo sapiens) (UniProt Q9NRG4). Kind of experiment: Selectivity interaction (Transferase panel (protein, RNA, and DNA methyltransferases. and EP300 (acetyltransferase))) EUB0000270b SMYD2.
Experiment [12] concerns the target T2, Serine/threonine-protein kinase DCLK3 (Homo sapiens) (UniProt Q9C098).
T2 sequence (whole entry): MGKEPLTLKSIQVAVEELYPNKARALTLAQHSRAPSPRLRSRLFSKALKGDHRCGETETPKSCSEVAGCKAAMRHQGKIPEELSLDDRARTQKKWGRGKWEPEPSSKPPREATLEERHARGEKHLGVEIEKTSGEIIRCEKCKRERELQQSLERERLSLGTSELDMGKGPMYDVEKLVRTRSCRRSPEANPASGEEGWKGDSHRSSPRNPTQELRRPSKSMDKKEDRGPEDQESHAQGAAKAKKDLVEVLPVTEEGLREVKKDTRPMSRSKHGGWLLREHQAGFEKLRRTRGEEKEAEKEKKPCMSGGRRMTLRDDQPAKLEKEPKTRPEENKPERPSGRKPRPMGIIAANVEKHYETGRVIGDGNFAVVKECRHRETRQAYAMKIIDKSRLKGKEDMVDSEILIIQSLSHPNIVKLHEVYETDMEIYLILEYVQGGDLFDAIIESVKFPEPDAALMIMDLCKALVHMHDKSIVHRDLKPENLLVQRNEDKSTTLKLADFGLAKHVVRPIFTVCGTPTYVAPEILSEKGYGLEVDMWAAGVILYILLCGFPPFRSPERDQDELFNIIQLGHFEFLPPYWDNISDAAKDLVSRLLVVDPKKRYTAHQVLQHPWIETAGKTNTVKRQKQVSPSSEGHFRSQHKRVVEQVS
Kind of experiment: Selectivity interaction (KinomeScan (DiscoverX)) EUB0000607a DCLK3. The following applies: at 10 µM.

Experiment [13] deals with Casein kinase I isoform alpha (Homo sapiens, UniProt P48729). The experiment is described as follows: Selectivity interaction (ActivX KiNativ screen (kinase selectivity in THP-1 cell lysates)) EUB0000639a CSNK1A1. The experiment is classed as subcellular. The following applies: lysate, at 0.2 µM.
The target of experiment [14] is Dual specificity mitogen-activated protein kinase kinase 1 (Homo sapiens, UniProt Q02750). Kind of experiment: Selectivity interaction (ActivX KiNativ screen (kinase selectivity in THP-1 cell lysates)) EUB0000639a MAP2K1. The experiment is classed as subcellular. The conditions noted are these: lysate, at 1 µM.
Experiment [15] has as its target D(2) dopamine receptor (Homo sapiens, UniProt P14416). Kind of experiment: Selectivity interaction (Dopamine D2 receptor assay, human recombinant ) EUB0000877a DRD2.
For experiment [16], the target named is Ephrin type-A receptor 2 (Homo sapiens) (UniProt P29317). The experiment is described as follows: Selectivity interaction (KinomeScan (DiscoverX)) EUB0001619a EPHA2. The conditions noted are these: at 1 µM.

N-lysine methyltransferase SMYD2 (Homo sapiens), sequence (Q9NRG4 whole entry): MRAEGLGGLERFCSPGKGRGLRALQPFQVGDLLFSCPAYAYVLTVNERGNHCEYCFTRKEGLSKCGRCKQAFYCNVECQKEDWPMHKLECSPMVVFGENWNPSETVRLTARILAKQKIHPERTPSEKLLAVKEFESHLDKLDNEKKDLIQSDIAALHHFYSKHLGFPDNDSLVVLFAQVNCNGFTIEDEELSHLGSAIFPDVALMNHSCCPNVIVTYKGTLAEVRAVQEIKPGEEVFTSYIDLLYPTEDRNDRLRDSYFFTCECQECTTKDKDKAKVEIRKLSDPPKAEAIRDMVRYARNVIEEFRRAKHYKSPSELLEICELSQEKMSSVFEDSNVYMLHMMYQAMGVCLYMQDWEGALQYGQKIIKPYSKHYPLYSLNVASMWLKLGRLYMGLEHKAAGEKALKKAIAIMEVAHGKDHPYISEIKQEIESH
D(2) dopamine receptor, sequence (P14416 whole entry): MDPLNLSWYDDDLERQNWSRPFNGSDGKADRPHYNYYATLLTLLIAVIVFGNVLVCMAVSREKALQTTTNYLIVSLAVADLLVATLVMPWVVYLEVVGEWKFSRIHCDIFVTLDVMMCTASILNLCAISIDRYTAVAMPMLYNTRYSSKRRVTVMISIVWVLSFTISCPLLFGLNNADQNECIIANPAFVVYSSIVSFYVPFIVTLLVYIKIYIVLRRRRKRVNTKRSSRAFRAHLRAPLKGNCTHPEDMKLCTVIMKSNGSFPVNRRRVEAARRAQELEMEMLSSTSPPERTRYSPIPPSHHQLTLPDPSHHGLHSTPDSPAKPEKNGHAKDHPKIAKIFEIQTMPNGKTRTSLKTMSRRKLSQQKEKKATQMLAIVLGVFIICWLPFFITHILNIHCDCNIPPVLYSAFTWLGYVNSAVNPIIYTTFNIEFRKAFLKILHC
Wee1-like protein kinase 2 (Homo sapiens), sequence (P0C1S8 whole entry, looked up): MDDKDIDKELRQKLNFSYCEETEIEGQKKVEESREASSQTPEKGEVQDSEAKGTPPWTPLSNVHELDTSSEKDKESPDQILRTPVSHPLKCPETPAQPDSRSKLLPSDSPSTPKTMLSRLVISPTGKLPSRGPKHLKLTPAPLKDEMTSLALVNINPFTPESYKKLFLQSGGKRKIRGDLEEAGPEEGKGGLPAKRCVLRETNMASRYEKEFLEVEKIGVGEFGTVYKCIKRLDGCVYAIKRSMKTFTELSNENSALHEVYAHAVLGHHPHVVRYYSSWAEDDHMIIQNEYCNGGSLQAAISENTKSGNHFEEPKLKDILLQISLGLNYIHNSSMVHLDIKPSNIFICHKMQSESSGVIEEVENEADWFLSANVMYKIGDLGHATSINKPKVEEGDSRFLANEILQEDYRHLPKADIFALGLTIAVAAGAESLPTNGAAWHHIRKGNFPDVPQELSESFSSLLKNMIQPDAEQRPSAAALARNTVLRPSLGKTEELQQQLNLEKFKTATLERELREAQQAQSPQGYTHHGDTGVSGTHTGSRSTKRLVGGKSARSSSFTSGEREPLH
Mu-type opioid receptor, sequence (P35372 whole entry): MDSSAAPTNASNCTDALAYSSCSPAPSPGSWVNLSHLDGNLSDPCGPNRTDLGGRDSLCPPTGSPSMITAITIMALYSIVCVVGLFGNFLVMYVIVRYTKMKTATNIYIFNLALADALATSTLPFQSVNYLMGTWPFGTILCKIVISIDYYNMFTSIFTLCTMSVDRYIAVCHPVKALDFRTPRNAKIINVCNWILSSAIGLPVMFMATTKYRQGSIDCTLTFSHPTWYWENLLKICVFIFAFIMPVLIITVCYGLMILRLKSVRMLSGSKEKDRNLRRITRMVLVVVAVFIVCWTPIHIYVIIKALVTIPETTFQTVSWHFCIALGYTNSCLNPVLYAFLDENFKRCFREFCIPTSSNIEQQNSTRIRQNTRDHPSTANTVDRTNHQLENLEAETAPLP
Cyclin-dependent kinase 7, sequence (P50613 whole entry): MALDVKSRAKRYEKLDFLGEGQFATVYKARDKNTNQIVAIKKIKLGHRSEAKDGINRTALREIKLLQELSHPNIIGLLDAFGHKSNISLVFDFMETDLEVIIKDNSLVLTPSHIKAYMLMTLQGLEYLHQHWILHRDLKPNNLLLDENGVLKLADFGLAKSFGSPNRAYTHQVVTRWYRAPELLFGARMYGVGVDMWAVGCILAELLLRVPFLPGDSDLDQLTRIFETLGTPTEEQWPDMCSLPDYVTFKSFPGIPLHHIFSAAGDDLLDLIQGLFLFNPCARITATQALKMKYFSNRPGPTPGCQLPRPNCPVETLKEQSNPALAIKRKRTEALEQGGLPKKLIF
Dual specificity mitogen-activated protein kinase kinase 1, sequence (Q02750 whole entry): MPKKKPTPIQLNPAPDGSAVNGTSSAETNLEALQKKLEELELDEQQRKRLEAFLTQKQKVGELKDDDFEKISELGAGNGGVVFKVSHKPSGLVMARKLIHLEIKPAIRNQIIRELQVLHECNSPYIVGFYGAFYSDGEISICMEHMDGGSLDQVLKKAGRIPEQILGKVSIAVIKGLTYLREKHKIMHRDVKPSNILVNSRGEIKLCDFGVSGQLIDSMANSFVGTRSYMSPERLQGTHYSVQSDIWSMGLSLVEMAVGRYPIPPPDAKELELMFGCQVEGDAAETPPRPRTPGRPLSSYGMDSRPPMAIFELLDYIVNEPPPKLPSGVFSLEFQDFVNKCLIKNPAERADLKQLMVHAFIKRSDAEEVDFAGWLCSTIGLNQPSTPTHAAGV
Serine/threonine-protein kinase OSR1 (Homo sapiens), sequence (O95747 2-527 limits assumed): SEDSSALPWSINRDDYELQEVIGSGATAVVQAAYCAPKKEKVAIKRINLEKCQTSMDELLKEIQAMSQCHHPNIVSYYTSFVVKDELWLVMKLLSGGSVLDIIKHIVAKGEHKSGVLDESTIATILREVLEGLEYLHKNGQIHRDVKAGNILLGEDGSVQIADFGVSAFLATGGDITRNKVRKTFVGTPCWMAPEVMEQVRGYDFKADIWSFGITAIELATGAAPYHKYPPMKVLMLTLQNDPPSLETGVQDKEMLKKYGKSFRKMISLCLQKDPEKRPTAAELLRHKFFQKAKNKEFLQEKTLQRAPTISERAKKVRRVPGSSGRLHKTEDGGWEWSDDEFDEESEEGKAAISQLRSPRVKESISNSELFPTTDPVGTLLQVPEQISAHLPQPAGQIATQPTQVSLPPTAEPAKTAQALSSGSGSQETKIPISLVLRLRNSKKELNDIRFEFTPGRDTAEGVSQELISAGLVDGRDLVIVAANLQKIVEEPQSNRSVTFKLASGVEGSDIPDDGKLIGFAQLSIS
LIM domain kinase 1 (Homo sapiens), sequence (P53667 whole entry, looked up, the tested form may be a part): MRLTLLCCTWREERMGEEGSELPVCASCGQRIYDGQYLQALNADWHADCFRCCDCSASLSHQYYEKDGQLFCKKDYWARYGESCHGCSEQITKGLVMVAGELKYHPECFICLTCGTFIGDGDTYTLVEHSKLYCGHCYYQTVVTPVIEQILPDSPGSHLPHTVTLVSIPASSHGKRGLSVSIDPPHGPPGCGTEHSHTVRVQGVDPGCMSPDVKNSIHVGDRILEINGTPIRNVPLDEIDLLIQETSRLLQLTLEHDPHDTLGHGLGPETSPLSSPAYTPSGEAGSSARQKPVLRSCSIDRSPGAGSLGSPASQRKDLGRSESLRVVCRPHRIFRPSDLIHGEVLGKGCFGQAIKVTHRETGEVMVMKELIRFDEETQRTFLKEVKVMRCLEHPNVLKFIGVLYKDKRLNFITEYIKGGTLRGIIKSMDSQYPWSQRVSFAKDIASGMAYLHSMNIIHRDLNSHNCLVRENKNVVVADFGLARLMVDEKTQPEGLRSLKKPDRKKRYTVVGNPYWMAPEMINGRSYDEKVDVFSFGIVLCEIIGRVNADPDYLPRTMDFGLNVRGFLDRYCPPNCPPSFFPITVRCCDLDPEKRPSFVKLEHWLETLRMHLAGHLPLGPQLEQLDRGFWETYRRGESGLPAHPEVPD
Tyrosine-protein kinase JAK1, sequence (P23458 whole entry): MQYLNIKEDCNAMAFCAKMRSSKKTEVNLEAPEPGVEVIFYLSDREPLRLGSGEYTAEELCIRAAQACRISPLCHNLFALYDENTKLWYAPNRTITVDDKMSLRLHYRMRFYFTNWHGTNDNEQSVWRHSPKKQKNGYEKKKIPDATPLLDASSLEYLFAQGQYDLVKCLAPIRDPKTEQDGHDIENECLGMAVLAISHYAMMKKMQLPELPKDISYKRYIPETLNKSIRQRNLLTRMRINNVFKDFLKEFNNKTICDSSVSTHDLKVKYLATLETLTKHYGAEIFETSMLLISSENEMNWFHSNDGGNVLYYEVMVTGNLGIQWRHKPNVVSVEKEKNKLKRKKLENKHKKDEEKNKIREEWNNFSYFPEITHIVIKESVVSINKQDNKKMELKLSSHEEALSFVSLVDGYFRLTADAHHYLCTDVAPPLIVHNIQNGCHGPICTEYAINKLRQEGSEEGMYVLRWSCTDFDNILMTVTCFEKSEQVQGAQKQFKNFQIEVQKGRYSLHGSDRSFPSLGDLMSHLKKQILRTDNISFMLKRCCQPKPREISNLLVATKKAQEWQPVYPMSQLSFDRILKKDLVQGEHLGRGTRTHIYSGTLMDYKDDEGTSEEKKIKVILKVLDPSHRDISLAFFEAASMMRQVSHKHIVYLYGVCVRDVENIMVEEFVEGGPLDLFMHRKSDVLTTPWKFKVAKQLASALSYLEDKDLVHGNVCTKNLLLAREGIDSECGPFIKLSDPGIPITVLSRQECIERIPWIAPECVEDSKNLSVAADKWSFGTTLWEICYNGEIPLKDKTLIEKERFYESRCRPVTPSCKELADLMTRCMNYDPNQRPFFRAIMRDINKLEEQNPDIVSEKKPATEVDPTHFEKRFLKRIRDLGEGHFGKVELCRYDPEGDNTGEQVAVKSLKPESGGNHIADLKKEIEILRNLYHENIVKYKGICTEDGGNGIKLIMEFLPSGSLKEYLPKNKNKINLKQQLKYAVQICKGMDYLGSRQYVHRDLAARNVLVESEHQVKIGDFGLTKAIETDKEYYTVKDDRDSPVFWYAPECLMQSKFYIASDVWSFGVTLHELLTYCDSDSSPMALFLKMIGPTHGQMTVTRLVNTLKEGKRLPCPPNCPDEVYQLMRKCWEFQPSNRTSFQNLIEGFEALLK

With `C=CC(=O)Nc1cccc(C(=O)Nc2ccc(Nc3cc(-c4[nH]c(SC)nc4C)ccn3)cc2)c1`, the % of control in [1] (at 1 µM) is 88%; in [1] (at 5 µM), 70%.

Consider `CC(C)(O)[C@H](F)CN1Cc2cc(NC(=O)c3cnn4cccnc34)c(N3CCOCC3)cc2C1=O`, for which the dTM in experiment [2] is -0.5 K.

As for `CN(C)C/C=C/C(=O)Nc1ccc(C(=O)N2CCCC(Nc3ncc(Cl)c(-c4c[nH]c5ccccc45)n3)C2)cc1` (stereo not drawn), in [3], the % of control came out at 73%.

`CCc1cc(Nc2nccc(-c3c(-c4ccc(OC)c(C(=O)Nc5c(F)cccc5F)c4)nc4ccccn34)n2)c(OC)cc1N1CCC(N2CCN(S(C)(=O)=O)CC2)CC1`: the % of inhibition in experiment [4] was found to be 43%.

As for `Nc1cnc(N2CCc3cc(S(=O)(=O)Nc4c(F)cc(Cl)cc4F)cc(N4CCCC4=O)c32)nc1` [TP-020n], in [5], the % of inhibition was -1.31%.

Take `CCC(=O)N1CCN(c2ccc(-n3c(=O)ccc4cnc5ccc(-c6cnc7ccccc7c6)cc5c43)cc2C(F)(F)F)CC1`: the % of control in experiment [6] is 57%.

For the compound `COc1cc(Nc2nc(C)cc(-c3cnn4nc(OC)ccc34)n2)cc(C(F)(F)F)c1`, the % of control in experiment [7] amounted to 93%.

Consider `Cc1cc(F)c(C(=O)Nc2cccc(-c3nncn3C(C)C)n2)cc1-n1cnc(C2CC2)c1`, for which the % of control in experiment [8] came out at 99%; in [9], 100%.

Regarding `Cn1cc(Nc2nccc(N3CC4CCC(C3)N4C(=O)[C@@H]3CC3(F)F)n2)cn1`, the % of inhibition in experiment [10] turned out to be 96%.

`Cc1cc(CN)cc(C)c1-c1ncn(C)c1-c1cncn1C`: the figures for the % activity in [11] (at 1 µM) and in experiment [11] (at 10 µM) were > 90% and > 80%, respectively.

The compound `CNC(=O)Nc1ccc(-c2nc(N3CC4CCC(C3)O4)c3cnn(C4CCC5(CC4)OCCO5)c3n2)cc1` had a % of control in experiment [12] of 100%.

As to `CC[C@@H]1[C@H](F)C(=O)N[C@@H]1COc1nccc2cc(C(N)=O)c(OC)cc12` [ZIMLOVISERTIB], the results for the % of inhibition in experiment [13] and in experiment [14] were -3.6% and 0.2%, respectively.

Turning to `CCC(=O)N1CC[C@H](Nc2ncnc3c2CN(c2cnc(OC)c(C(F)(F)F)c2)CC3)C1` [LENIOLISIB], the IC50 in experiment [15] is > 30 µM.

`N#Cc1cccc(-c2c[nH]c3ncnc(N4CCOCC4)c23)c1` came in with a % of control in [16] of 100%.

As a reminder, the IC50 is the concentration needed to halve the response being measured.
